Results published in patent US20230390250A1, “MODULATION OF GLUCAGON-LIKE PEPTIDE 1 AND USES THEREOF” (priority 2020, published 2023).
Entries after “also recorded” stand apart in the source; their conditions may differ. Read-outs that look alike come from different tables or passages of the source.

Legend:
GLUTag cells = assay: GLP-1 secretion from cultured GLUTag cells treated with LPA and/or LPAR antagonist; assay type: cell-based, mouse; details: for decrease in GLP-1 secretion / level caused by LPA (fraction): 2-2.5 h; for effect of LPAR antagonist alone on GLP-1 levels: 10 μM antagonist alone, 2 h; for rescue of LPA-inhibited GLP-1 secretion by LPAR antagonist: 10 μM antagonist plus 2.5 μM LPA
Protocol: We have grown GLUTag cells in culture to test effects of various LPA species and the LPAR 1/2/3 inhibitor Ki-16425. GLUTag cells are a well characterized L-cell line derived from a mouse intestinal tumour, which have been widely used to study the regulation of GLP-1. Briefly, GLUTag cells were grown until 80-90% confluent. Complete medium, containing fetal bovine serum, was replaced with medium containing charcoal[…] dextran treated serum, which removes lipids and hormones that could interfere with testing. […] This indicates a direct inhibitory effect of LPA at physiologically relevant levels on GLP-1 secretion by L-cells, and the ability of a commercially available LPAR antagonist to prevent this.
Experimental Protocol. Briefly, GLUTag cells were grown until 70-80% confluent. Complete medium (low glucose DMEM), containing fetal bovine serum, was replaced with medium containing charcoal-dextran treated serum, which removes lipids and hormones that could interfere with testing. Cells were then treated with medium containing either DMSO as vehicle control (0.1% v/v), 2.5 μM LPA, 10 μM LPAR antagonist, or a combination of the LPA species and inhibitors. For cells treated with both LPA plus LPAR inhibitor: cells were pre-treated with LPA for 30 minutes and then 10 uM LPAR inhibitor was added to the respective wells for a further 2 hours. For cells treated with LPA only, or vehicle only, the total treatment time was 2.5 hours. For cells treated with antagonist only, the treatment time was 2 hours.

GLP-1 = assay: Circulating GLP-1 in mice injected with LPA, with or without LPAR antagonist pre-treatment; assay type: in vivo; details: for decrease in plasma GLP-1 levels after LPA injection / effect of LPA on circulating GLP-1 levels (words): 50 mg/kg i.p.; for decrease in plasma GLP-1 levels after LPA injection: 30 minutes later, n=3 (Example 3, FIG. 4); for effect of LPA on circulating GLP-1 levels (words): mice; for rescue of the fall in blood GLP-1 levels caused by LPA: serum at 30 min (Examples 6, 8); for blood GLP-1 with antagonist alone versus vehicles: no LPA
Protocol: We injected mice i.p. with vehicle (10% DMSO in isotonic saline) or 50 mg/kg of 1-oleoyl-2-hydroxy-LPA. Half of the mice injected with LPA were pre-injected with 5 mg/kg Ki-16425 10 minutes prior to receiving LPA. Thirty minutes later, samples of blood were taken by cardiac puncture, and circulating active GLP-1 levels in plasma were analysed by enzyme linked immunosorbent assay.
(§1) The experimental protocol was as follows: • 1. Mice were administered an LPAR antagonist drug, either by oral gavage (for BMS986020, SARI 00842, AM966, AM095, or H2L51863030), or by i.p. injection (for Ki-16425, and LPA2-antagonistl) at the doses indicated in the table below. • 2. Control mice were administered only the vehicle (a 10% DMSO solution) given via the same route as the comparison drug was administered. • 3. Ten minutes later, mice were injected i.p. either with isotonic saline, or with 50 mg/kg LPA. • 4. Thirty minutes later, mice were euthanized by cervical dyslocation, and blood was collected from the heart for preparation of serum that was stored at −80C until it was analyzed for total GLP-1 concentration by ELISA assay using a GLP-1 enzyme immunoassay kit.

DPP4 [1] = assay: DPP4 activity in serum of C57BI/6J mice; assay type: in vivo; details: 50 mg/kg 18:1-LPA i.p., serum 30 minutes later
Protocol: Mice were injected with 5 mg/kg Ki16425 or control (10% DMSO in isotonic saline), then injected 10 mins later with 50 mg/kg 1-18:1-LPA or saline (vehicle control), then euthanized 30 minutes later for serum collection and analysis.
as §1, with “(for” for “(for BMS986020,”, “00842” for “00842, AM966, AM095,”, “AM966),” for “H2L51863030),”, “Ki-16425)” for “Ki-16425, and LPA2-antagonistl)”, “18:1-LPA.” for “LPA.”

DPP4 [2] = assay: DPP4 activity in GLUTag cells (fluorometric kit ab204722); assay type: cell-based, mouse; details: 2.5 uM 18:1-LPA
Protocol: Briefly, GLUTag cells were grown to produce the recommended quantity needed for the assay according to the manufacturer's protocol (ab204722 Dipeptidyl peptidase IV Activity Assay Kit (Fluorometric)), and then the wells were treated in media containing charcoal-stripped FBS (10%), with either nothing (no treatment control), or vehicle control (0.05% DMSO), or 2.5 uM 18:1-LPA for 30 minutes, and then the inhibitors (as indicated in the graph of FIG. 17) were added to the vehicle wells and the 2.5 uM 18:1-LPA wells at 10 uM concentrations, as indicated on the graph (FIG. 17), for an additional 2 hours. Cells were then harvested according to the manufacturer's protocol, and lysed using reagents from the kit. Charcoal-stripped FBS was used to remove lipids, including LPA, from serum. Experiments were also carried out wherein the FBS was not stripped with charcoal, and the results were not different.
According to the manufacturer, dipeptidyl peptidase IV (DPP4) Activity Assay Kit (Fluorometric) (ab204722) is an assay where DPP4 cleaves a substrate to release a quenched fluorescent group, AMC (7-Amino-4-Methyl Coumarin), which can be easily detected at Ex/Em=360/460 nm. This assay is rapid, simple, sensitive, and reliable, as well as, suitable for high throughput activity screening of DPP4. This kit detects DPP4 activity as low as 3 ρU per well.

LPAR1 = LPAR1 (Homo sapiens, UniProt Q92633); details: cited from earlier work
Sequence of LPAR1 (Q92633 whole entry, species assumed): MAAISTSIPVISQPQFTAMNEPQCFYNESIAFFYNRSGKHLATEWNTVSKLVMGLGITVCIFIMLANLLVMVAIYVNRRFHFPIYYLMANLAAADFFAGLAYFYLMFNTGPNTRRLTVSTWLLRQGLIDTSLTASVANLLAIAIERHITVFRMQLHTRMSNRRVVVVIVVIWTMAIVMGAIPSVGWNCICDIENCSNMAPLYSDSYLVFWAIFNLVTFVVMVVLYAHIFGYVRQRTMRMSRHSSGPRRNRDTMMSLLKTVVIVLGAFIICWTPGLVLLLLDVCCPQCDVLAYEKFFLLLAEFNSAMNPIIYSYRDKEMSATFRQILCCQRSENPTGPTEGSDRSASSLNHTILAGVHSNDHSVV

LPAR2 = LPAR2 (Homo sapiens, UniProt Q9HBW0); details: cited from earlier work
Sequence of LPAR2 (Q9HBW0 whole entry, species assumed): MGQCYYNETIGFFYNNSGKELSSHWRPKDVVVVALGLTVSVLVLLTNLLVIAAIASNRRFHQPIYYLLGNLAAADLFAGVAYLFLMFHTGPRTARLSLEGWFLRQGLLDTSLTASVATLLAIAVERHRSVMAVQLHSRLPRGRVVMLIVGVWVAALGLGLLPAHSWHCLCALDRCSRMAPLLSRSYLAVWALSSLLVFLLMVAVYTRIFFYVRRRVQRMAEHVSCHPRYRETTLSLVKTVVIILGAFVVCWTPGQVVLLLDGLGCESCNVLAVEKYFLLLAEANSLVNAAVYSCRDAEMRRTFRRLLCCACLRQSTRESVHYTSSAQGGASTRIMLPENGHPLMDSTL

LPAR3 = molecular target: T1, LPAR3 (Homo sapiens, UniProt Q9UBY5); details: cited from earlier work
T1 sequence (Q9UBY5 1-353): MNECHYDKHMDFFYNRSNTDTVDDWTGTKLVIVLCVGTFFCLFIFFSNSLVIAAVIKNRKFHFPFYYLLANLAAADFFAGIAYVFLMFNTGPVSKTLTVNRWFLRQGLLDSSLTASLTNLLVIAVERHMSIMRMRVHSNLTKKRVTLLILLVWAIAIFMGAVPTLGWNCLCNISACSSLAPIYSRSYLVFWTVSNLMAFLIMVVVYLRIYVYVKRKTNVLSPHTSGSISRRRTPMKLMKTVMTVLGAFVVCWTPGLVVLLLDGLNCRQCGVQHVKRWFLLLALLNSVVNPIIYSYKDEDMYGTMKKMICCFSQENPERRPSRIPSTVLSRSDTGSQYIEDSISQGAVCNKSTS

[3] = antagonist 30 mg/kg by gavage 10 min before 50 mg/kg 18:1-LPA i.p.

CCCCCCCCCCCCCCCC(=O)OCC(O)COP(=O)(O)O (stereo not drawn) [1-palmitoyl-2-hydroxy-LPA]
decrease in GLP-1 secretion / level caused by LPA (fraction) (GLUTag cells; 2.5 μM LPA): over 2/3

CCCCCCCCCCCCCCCCCC(=O)OCC(O)COP(=O)(O)O (stereo not drawn) [1-stearoyl-2-hydroxy-LPA]
decrease in GLP-1 secretion / level caused by LPA (fraction) (GLUTag cells; 2.5 μM LPA): over 2/3

CCCCCCCC/C=C\CCCCCCCC(=O)OC[C@@H](O)COP(=O)(O)O [18:1-LPA, 1-oleoyl-2-hydroxy-LPA]
decrease in plasma GLP-1 levels after LPA injection (GLP-1): ~60%
decrease in plasma GLP-1 levels after LPA injection (GLP-1; listed as 1-18:1-LPA): over 60%
effect of LPA on circulating GLP-1 levels (words) (GLP-1): decreased
effect of LPA on circulating GLP-1 levels (words) (GLP-1; listed as 1-oleoyl-2-hydroxy-LPA): decreases circulating GLP-1 levels
effect of LPA on DPP4 activity in mouse serum (DPP4 [1]): did not affect
decrease in GLP-1 secretion / level caused by LPA (fraction) (GLUTag cells; 2.5 μM LPA): > 2/3
decrease in GLP-1 secretion / level caused by LPA (fraction) (GLUTag cells; 2.5 μM LPA, listed as 1-oleoyl-2-hydroxy-LPA): over 2/3
effect of LPA on DPP4 activity in GLUTag cells (DPP4 [2]): did not significantly reduce

CCCCC/C=C\C/C=C\CCCCCCCC(=O)OCC(O)COP(=O)(O)O (stereo not drawn) [18:2-LPA, 1-linoleoyl-2-hydroxy-LPA]
effect of LPA on GLP-1 secretion (GLUTag cells; 2.5 μM LPA): decreases GLP-1 secretion
decrease in GLP-1 secretion / level caused by LPA (fraction) (GLUTag cells; 2.5 μM LPA): > 2/3
decrease in GLP-1 secretion / level caused by LPA (fraction) (GLUTag cells; 2.5 μM LPA, listed as 1-linoleoyl-2-hydroxy-LPA): over 2/3

Cc1noc(-c2ccc(-c3ccc(C4(C(=O)O)CC4)cc3)cc2)c1NC(=O)O[C@H](C)c1ccccc1 [BMS-986020]
rescue of the fall in blood GLP-1 levels caused by LPA (GLP-1; [3]): did not significantly rescue
blood GLP-1 with antagonist alone versus vehicles (GLP-1; antagonist 30 mg/kg by gavage): indistinguishable from mice treated only with the vehicles
Ki (LPAR1): < 0.3 µM
IC50 (LPAR1; read-out: IC50 for LPAR1): < 0.3 µM
effect of LPAR antagonist alone on GLP-1 levels (GLUTag cells): no significant effect
rescue of LPA-inhibited GLP-1 secretion by LPAR antagonist (GLUTag cells): partially rescued
rescue of LPA-inhibited GLP-1 secretion by LPAR antagonist (GLUTag cells; listed as BMS986020): did significantly restore GLP-1 secretion

O=C(O)/C=C\C(=O)Nc1ccc(Oc2cccc(Oc3ccc(NC(=O)/C=C\C(=O)O)cc3)c2)cc1 [H2L5186303]
rescue of the fall in blood GLP-1 levels caused by LPA (GLP-1; [3]): partially rescued; also recorded: partial rescue
blood GLP-1 with antagonist alone versus vehicles (GLP-1; antagonist 30 mg/kg by gavage): slightly, but significantly lower
IC50 (LPAR2): 0.0089 µM
Ki (LPAR2): 0.0089 µM
Ki (LPAR1): 27 µM
IC50 (LPAR1; read-out: IC50 for LPAR1): 27.4 µM
effect of LPAR antagonist alone on GLP-1 levels (GLUTag cells): no significant effect; also recorded: did not significantly affect
rescue of LPA-inhibited GLP-1 secretion by LPAR antagonist (GLUTag cells): partially rescued
Ki (LPAR3): ~5 µM
IC50 (LPAR3; read-out: IC50 for LPAR3): 4.5 µM

Cc1csc2c(N[C@@H](C)CN3CCN(S(=O)(=O)c4ccc(Cl)c(Cl)c4)CC3)ncnc12 [LPA2-antagonist 1]
rescue of the fall in blood GLP-1 levels caused by LPA (GLP-1; antagonist 5 mg/kg i.p. 10 min before 50 mg/kg 18:1-LPA i.p.): lack of rescue
rescue of the fall in blood GLP-1 levels caused by LPA (GLP-1; antagonist 5 mg/kg i.p. 10 min before 50 mg/kg 18:1-LPA i.p., listed as LPA2-antagonist): did not significantly rescue
blood GLP-1 with antagonist alone versus vehicles (GLP-1; antagonist 5 mg/kg i.p.): slightly, but significantly lower
IC50 (LPAR2): 0.017 µM
IC50 (LPAR1; read-out: IC50 for LPAR1): > 50 µM
IC50 (LPAR1; read-out: IC50 with LPAR1): > 50 µM
effect of LPAR antagonist alone on GLP-1 levels (GLUTag cells): no significant effect
effect of LPAR antagonist alone on GLP-1 levels (GLUTag cells; listed as LPA2-antagonist): did not significantly reduce
rescue of LPA-inhibited GLP-1 secretion by LPAR antagonist (GLUTag cells): complete rescue
rescue of LPA-inhibited GLP-1 secretion by LPAR antagonist (GLUTag cells; listed as LPA2-antagonist): significantly increased
IC50 (LPAR3; read-out: IC50 for LPAR3): > 50 µM
IC50 (LPAR3; read-out: IC50 with LPAR3): > 50 µM
